{"source": "patent US4868203A", "about": "“Bacterial substance and pharmaceutical composition thereof” (Kabushikikaisha Ueno Seiyaku Oyo Kenkyujo, priority 1986, dated 1989)", "key": {"[1]": {"tested_on": "Pseudomonas syringae PV lachrymans NIAES 1316", "assay": "Evaluation of activity against the bacterial spot of cucumber (Test Example 3)", "assay_type": "in vivo", "conditions": "50 ppm", "description": "Cucumber(Green tokiwa) was used for the test. Potted cucumber plants (2 leaf stage) were sprayed with sufficient amount of 50 ppm solution of bacterial substance UFC-N11 (dissolved in 0.05% aqueous sodium bicarbonate), air-dried, and spray-inoculated 10^8 /ml suspension of Pseudomonas Syringae PV lachrymans NIAES 1316, cultured on Wakimoto medium for 3 days, on both sides of leaves. For the control, an experiment was carried out using a solution without the substance N11 in the same manner as described above. After inoculation, the plants were maintained at 28° C. for 24 hours and maintained in a glass house until the day of evaluation. Six days after inoculation, percentage of spots area affected on the first and second seed leaf was observed and protection value was calculated according to the following formula: [formula] The experiment was repeated using Cu(OH)2 (Kosaid) 83% wettable powder (produced by Hokko chemical Industry Co. Ltd.) as a positive reference. In this case CaCO3 (Kurefunon) (produced by Shiraishi Calcium) was added (×200) in order to reduce damage."}, "[2]": {"assay": "Storage life of kamaboko, rot-proof property (Test Example 4)", "quoted_text": "Fish paste was prepared by adding NaCl (2.5%), chemical seasoning (0.8%), starch (5%) and ice water (10%) based on frozen surimi of walleye pollack (4 kg) and cutting by a silent cutter for 10 minutes. Predetermined amount of bacterial substance UFC-N11 based on the resulting fish paste (2 kg) was added and completely mixed in a small mixer for 5 minutes. About 100 g fish paste were enclosed with polyvinylidene chloride film (spread width:45 mm), boiled at 90° C. for 30 minutes, quenched, left overnight and then tested for rot-proof property.\nThe test was conducted as follows. As the complete package products, 10 pieces/group of kamaboko processed by casing method samples and, as the simplified package products, 10 pieces/group prepared by peeling off the casing under sterilized condition, cutting into 2 round slices (thickness: 10 mm) by a sterilized knife and placing in a sterilized plastic Petri dish. were placed in a thermostatic chamber at 30° C. and evaluated by macroscopically observation. The evaluation uses five-level scale shown below. The period until the average evaluation value of 1 is attained is defined as the storage life."}, "Pseudomonas aeruginosa": {"tested_on": "Pseudomonas aeruginosa", "assay_type": "cell-based", "description": "(§1) The minimum growth inhibitory concentration (MIC) values of bacterial substance UFC-N11 to various kinds of bacteria determined according to the conventional method were measured in the conventional manner."}, "[3]": {"tested_on": "Enterobacter cloacae IID977", "assay_type": "cell-based", "description": "as §1"}, "[4]": {"tested_on": "Ervinia carotovara subsp. carotovora NIAES 1393", "assay_type": "cell-based", "conditions": "Ervinia carotovara NIAES 1393 (black leg of potatoes)", "description": "as §1"}, "Bacillus subtilis 6633": {"tested_on": "Bacillus subtilis 6633", "assay_type": "cell-based", "description": "as §1"}, "[5]": {"assay": "Storage life of steamed Chinese noodles (Test Example 5)", "description": "After kneading for 10 minutes. the product was rolled and cut with cutting edge (#10) to give noodles. The resulting noodles were steamed at the temperature higher than 98° C. for 6 minutes, washed with water, packed in polyethylene packages (each weighing 40 g) and heated at 85° C. for 30 minutes. The obtained packages containing Chinese noodles (10 bags/group) were maintained at 30° C. and the change in appearance with time was observed and preservation effect was evaluated according to the following evaluation scale. The values shown in the following Table are averaged evaluation levels of degeneration."}, "[6]": {"tested_on": "Xanthomonas campestris PV citri", "conditions": "for Prevention: sprayed 24 hours after inoculation, 14 days"}, "[7]": {"tested_on": "Xandomonas campestris PV oryzae H75373", "assay_type": "cell-based"}, "[8]": {"tested_on": "Pasteurella piscicida KGP86041", "assay_type": "cell-based"}, "Pasteurella piscicida": {"tested_on": "Pasteurella piscicida", "assay": "microbe, parasite or virus in culture", "assay_type": "cell-based"}, "[9]": {"assay": "Preservability of potato salad (Test Example 6)", "conditions": "for Living bacteria: at end of storage life", "description": "Bacterial substance UFC-N11 was added to potato (300 g), carrot (50 g), sliced onion (60 g), sliced cucumber (80 g), salad oil (15 g), vinegar (12. 5 g), NaCl (2 g), pepper (0.05 g) and mayonnaise (100 g) (total: ca 620 g) to prepare potato salad. Test samples (20 g/group) were packed in 200 ml mayonnaise bottles, sealed and examined for the preservability at 30° C. Potato and carrot were boiled and cut into appropriate size before use. The period until emission of a putrid smell is defined as effective storage life. General living bacterial number of samples at that time was also measured."}, "Vibrio anguillarum 25-1": {"tested_on": "Vibrio anguillarum 25-1", "assay": "Minimum growth inhibiting concentration, pathogenic bacteria of fish disease (Test Example 8)", "assay_type": "cell-based", "conditions": "Vibrio anguillarum 25-1 (Vibrio disease of sweetfish)", "from_the_text": "(§2) The minimum growth inhibitory concentrations (MIC) of the bacterial substance UFC-N11 against various bacteria were according to conventional procedure the results are as follows: […]"}, "Vibrio anguillarum K-3": {"tested_on": "Vibrio anguillarum K-3", "assay": "Minimum growth inhibiting concentration, pathogenic bacteria of fish disease (Test Example 8)", "assay_type": "cell-based", "conditions": "Vibrio anguillarum K-3 (Vibrio disease of young yellowtail)", "from_the_text": "as §2"}, "[10]": {"tested_on": "Flexibacter columnaris V-II", "assay": "Minimum growth inhibiting concentration, pathogenic bacteria of fish disease (Test Example 8)", "assay_type": "cell-based", "conditions": "Flexibacter columnaris V-II (Columnaris disease of eel)", "from_the_text": "as §2"}, "Edwardssiella tarda 4-1": {"tested_on": "Edwardssiella tarda 4-1", "assay": "Minimum growth inhibiting concentration, pathogenic bacteria of fish disease (Test Example 8)", "assay_type": "cell-based", "conditions": "Edwardssiella tarda 4-1 (Edwardsiellosis of eel)", "from_the_text": "as §2"}, "[11]": {"tested_on": "Aeromonas hydrophila IAM108", "assay": "Minimum growth inhibiting concentration, pathogenic bacteria of fish disease (Test Example 8)", "assay_type": "cell-based", "conditions": "Aeromonas hydrophila IAM108 (Aeromonas disease of carp)", "from_the_text": "as §2"}, "[12]": {"tested_on": "Aeromonas salmonicida, MC7503", "assay": "Minimum growth inhibiting concentration, pathogenic bacteria of fish disease (Test Example 8)", "assay_type": "cell-based", "conditions": "MC7503 (Furunculosis of salmonids)", "from_the_text": "as §2"}, "[13]": {"assay": "Absorbance by oral administration, absorption and secretion in yellowtail (Test Example 10)", "assay_type": "in vivo", "conditions": "oral 100 mg/kg", "description": "To a cultured yellowtail, UFC-N11 was compulsorily oral-administered at the rate of 100 mg/kg per body weight of fish. The tissue samples were collected 3, 8, and 24 hours later respective in order to determine the concentrations in the tissues."}}, "note": "Where “and” joins values, the source holds several entries; their conditions need not be identical. Equal values may be shown once. Read-outs that look alike come from different tables or passages of the source.", "data": [{"smiles": "CC=CC=CC=CC(=O)NC(CC(=O)NC(C(=O)C1C(=O)NC(=O)C1C)C(C)C)c1ccccc1", "note": "(stereo not shown) [UFC-N11]", "values": [{"measurement": "Damage", "setting": "[1]; cucumber plants", "value": "Nil"}, {"measurement": "Protection", "setting": "[1]; sprayed before inoculation, 6 days", "value": 36.8}, {"measurement": "Storage life, Complete package", "setting": "[2]; 0.01 ppm, pH 7.06, 30° C.", "value": 5.0, "unit": "days"}, {"measurement": "Storage life, simplified package", "setting": "[2]; 0.01 ppm, pH 7.06, 30° C.", "value": 2.5, "unit": "days"}, {"measurement": "Storage life, Complete package", "setting": "[2]; 0.1 ppm, pH 7.06, 30° C.", "value": 7.0, "unit": "days"}, {"measurement": "Storage life, simplified package", "setting": "[2]; 0.1 ppm, pH 7.06, 30° C.", "value": 3.0, "unit": "days"}, {"measurement": "Storage life, Complete package", "setting": "[2]; 1.0 ppm, pH 7.05, 30° C.", "value": 9.0, "unit": "days"}, {"measurement": "Storage life, simplified package", "setting": "[2]; 1.0 ppm, pH 7.05, 30° C.", "value": 4.5, "unit": "days"}, {"measurement": "Storage life, Complete package", "setting": "[2]; 10 ppm, pH 7.05, 30° C.", "value": 14.0, "unit": "days"}, {"measurement": "Storage life, simplified package", "setting": "[2]; 10 ppm, pH 7.05, 30° C.", "value": 7.5, "unit": "days"}, {"measurement": "Storage life, Complete package", "setting": "[2]; 50 ppm, pH 7.04, 30° C.", "value": 18.0, "unit": "days"}, {"measurement": "Storage life, simplified package", "setting": "[2]; 50 ppm, pH 7.04, 30° C.", "value": 9.0, "unit": "days"}, {"measurement": "Storage life, Complete package", "setting": "[2]; 100 ppm, pH 7.06, 30° C.", "value": 24.0, "unit": "days"}, {"measurement": "Storage life, simplified package", "setting": "[2]; 100 ppm, pH 7.06, 30° C.", "value": 12.0, "unit": "days"}, {"measurement": "MIC", "setting": "Pseudomonas aeruginosa", "value": 50, "unit": "µg/mL"}, {"measurement": "MIC", "setting": "[3]", "value": 25, "unit": "µg/mL"}, {"measurement": "MIC", "setting": "[4]", "value": 6.25, "unit": "µg/mL"}, {"measurement": "MIC", "setting": "Bacillus subtilis 6633", "value": 0.39, "unit": "µg/mL"}, {"measurement": "Storage life", "setting": "[5]; 0.1 ppm, pH of product 9.39, 30° C.", "value": 6.0, "unit": "days"}, {"measurement": "Storage life", "setting": "[5]; 1.0 ppm, pH of product 9.41, 30° C.", "value": 8.1, "unit": "days"}, {"measurement": "Storage life", "setting": "[5]; 10 ppm, pH of product 9.40, 30° C.", "value": 10.0, "unit": "days"}, {"measurement": "Storage life", "setting": "[5]; 50 ppm, pH of product 9.38, 30° C.", "value": 16.0, "unit": "days"}, {"measurement": "Storage life", "setting": "[5]; 100 ppm, pH of product 9.41, 30° C.", "value": 20.0, "unit": "days"}, {"measurement": "preservability of the heated and steamed Chinese noodles", "setting": "[5]; upon addition of UFC-N11", "value": "remarkably improved"}, {"measurement": "Prevention", "setting": "[6]; 20 ppm", "value": 26.70, "unit": "%"}, {"measurement": "Prevention", "setting": "[6]; 40 ppm", "value": 33.9, "unit": "%"}, {"measurement": "Damage", "setting": "[6]; in vivo", "value": "nil"}, {"measurement": "MIC", "setting": "[7]", "value": 0.05, "unit": "µg/mL"}, {"measurement": "MIC", "setting": "[8]", "value": 0.16, "unit": "µg/mL"}, {"measurement": "MIC", "setting": "Pasteurella piscicida", "value": "0.31 µg/mL and 0.16 µg/mL"}, {"measurement": "antibacterial activity", "setting": "Pasteurella piscicida", "value": "excellent antibacterial activity"}, {"measurement": "Living bacteria", "setting": "[9]; 0.05 ppm", "value": "5.9e+06", "unit": "g⁻¹"}, {"measurement": "Storage life", "setting": "[9]; 0.05 ppm, pH 5.14, 30° C.", "value": 24, "unit": "h"}, {"measurement": "Living bacteria", "setting": "[9]; 0.5 ppm", "value": "2.8e+07", "unit": "g⁻¹"}, {"measurement": "Storage life", "setting": "[9]; 0.5 ppm, pH 5.15, 30° C.", "value": 30, "unit": "h"}, {"measurement": "Living bacteria", "setting": "[9]; 5.0 ppm", "value": "8.1e+06", "unit": "g⁻¹"}, {"measurement": "Storage life", "setting": "[9]; 5.0 ppm, pH 5.15, 30° C.", "value": 43, "unit": "h"}, {"measurement": "Living bacteria", "setting": "[9]; 50 ppm", "value": "5.5e+07", "unit": "g⁻¹"}, {"measurement": "Storage life", "setting": "[9]; 50 ppm, pH 5.16, 30° C.", "value": 56, "unit": "h"}, {"measurement": "MIC", "setting": "Vibrio anguillarum 25-1", "value": 2.5, "unit": "µg/mL"}, {"measurement": "MIC", "setting": "Vibrio anguillarum K-3", "value": 2.5, "unit": "µg/mL"}, {"measurement": "MIC", "setting": "[10]", "value": 0.63, "unit": "µg/mL"}, {"measurement": "MIC", "setting": "Edwardssiella tarda 4-1", "value": 2.5, "unit": "µg/mL"}, {"measurement": "MIC", "setting": "[11]", "value": 5.0, "unit": "µg/mL"}, {"measurement": "MIC", "setting": "[12]", "value": 1.25, "unit": "µg/mL"}, {"measurement": "absorption", "setting": "[13]", "value": "absorbed in concentrations which were equal to or in excess of the anti-bacterial activity"}, {"measurement": "Concentration in tissue, Kidney", "setting": "[13]; 3 hr", "value": 6.55, "unit": "µg/g"}, {"measurement": "Concentration in tissue, Liver", "setting": "[13]; 3 hr", "value": 8.79, "unit": "µg/g"}, {"measurement": "Concentration in tissue, Muscle", "setting": "[13]; 3 hr", "value": 0.96, "unit": "µg/g"}, {"measurement": "Concentration in tissue, Plasma", "setting": "[13]; 3 hr", "value": 2100, "unit": "ng/mL"}, {"measurement": "Concentration in tissue, Kidney", "setting": "[13]; 8 hr", "value": 4.02, "unit": "µg/g"}, {"measurement": "Concentration in tissue, Liver", "setting": "[13]; 8 hr", "value": 5.14, "unit": "µg/g"}, {"measurement": "Concentration in tissue, Muscle", "setting": "[13]; 8 hr", "value": 1.12, "unit": "µg/g"}, {"measurement": "Concentration in tissue, Plasma", "setting": "[13]; 8 hr", "value": 1340, "unit": "ng/mL"}, {"measurement": "Concentration in tissue, Kidney", "setting": "[13]; 24 hr", "value": 1.13, "unit": "µg/g"}, {"measurement": "Concentration in tissue, Liver", "setting": "[13]; 24 hr", "value": 1.36, "unit": "µg/g"}, {"measurement": "Concentration in tissue, Muscle", "setting": "[13]; 24 hr", "value": "< 0.25", "unit": "µg/g"}, {"measurement": "Concentration in tissue, Plasma", "setting": "[13]; 24 hr", "value": "< 125", "unit": "ng/mL"}]}]}
